From paper PMC12395308 (ACS Central Science, 2025)
In brackets after ≈: the same amount, converted by molar mass.

How the values were obtained:
[1] = Comparative plasma exposure after a single oral dose at three incremental dose levels; conditions: for plasma concentration of INH (mean): oral 1mg/Kg; for concentration at 2 h / concentration at 6 h: Balb/C, mouse, plasma, po
[2] = Aqueous stability in acidic and basic buffer (HPLC); conditions: post 24 h of incubation; for chemical stability, pH (7.6): percentage of parent remaining: basic buffer
[3] = Chemical stability in neat DMSO (UV spectrophotometer); conditions: post 24 h of incubation
[4] = Derivatization-based quantification of hydrazine in mice plasma using LC-MS; conditions: for plasma concentration of in vivo released Hz: post 24hrs of 6th dose, repetitive oral dosing for six days; for plasma level of released Hz: single oral dose (10 mg/kg INH or equivalent), all time points 0.083–24 h
[5] = Comparative pharmacokinetic analysis after a single intravenous dose
[6] = In vivo plasma exposure after repetitive single oral dosing for 10 consecutive days; conditions: for eAUC20m–6h (AcHz): 10th dose, oral, molar equivalent of 10 mg/kg INH
[7] = Complete pharmacokinetic analysis after a single oral dose; conditions: for plasma level of AcHz formed in vivo: all time points 0.083–24 h
[8] = tested on: pyridoxal and pyridoxal-5′-phosphate; experiment: Quantification of pyridoxal and pyridoxal-5-phosphate in mice liver; conditions: repeat-dose study; INH 90 mg/kg, 1d 117.5 mg/kg
[9] = Lipophilicity (logD) by shake flask method
[10] = Human liver microsomal stability analysis; conditions: for percentage of 1d/INH remaining after 2 h of incubation, human liver microsomes: 50 μM, 1 mg/mL microsomes, 1 mM NADPH
[11] = Aqueous solubility in Tris HCl buffer (pH 7.4), shake flask method; conditions: 37 °C, pH 7.4, aqueous buffer, thermodynamic from solid
[12] = Mouse liver homogenate conversion assay; type: in vitro ADME
[13] = Bioconversion of prodrugs in plasma, ex vivo (human); conditions: 200 μg/mL
[14] = Stomach homogenate conversion assay; type: in vitro ADME, mice; conditions: 50 μg/mL
[15] = Bioconversion of prodrugs in plasma, ex vivo (mice); conditions: 200 μg/mL
[16] = In vivo plasma exposure after a single oral dose (RACE-PK); conditions: single oral dose 10 mg/kg
[17] = Intestinal homogenate conversion assay; type: in vitro ADME, mice; conditions: 50 μg/mL
[18] = Balb/C, mouse, plasma, iv, 1 mg/kg
[19] = Balb/C, mouse, plasma, po, 10 mg/kg of INH (prodrugs at molar equivalent)

Q: With `NNC(=O)c1ccncc1` [INH, Isoniazid, reference compound] as the compound, how does the “plasma concentration of INH (mean)” value ([1]; 2 h) read?
A: BLQ

Q: What about the “plasma concentration of INH (mean)” value ([1]; 6 h) of the same compound?
A: BLQ

Q: What about the “chemical stability, pH (3.0): percentage of parent remaining” value ([2]; acidic buffer) of the same compound?
A: 100.0%

Q: What about the “chemical stability, pH (7.6): percentage of parent remaining” value [2] of the same compound?
A: 100.0%

Q: What about the “chemical stability, DMSO: percentage of parent remaining” value [3] of the same compound?
A: 100.0%

Q: What about the “plasma concentration of in vivo released Hz” value [4] of the same compound?
A: BLQ

Q: What about the “plasma level of released Hz” value [4] of the same compound?
A: BLQ

Q: And the “plasma concentration of released INA (mean)” value ([5]; single IV dose, 0.33 h)?
A: BLQ

Q: And the “plasma concentration of released INA (mean)” value ([5]; single IV dose, 1 h)?
A: BLQ

Q: And the “plasma concentration of released AcINH (mean)” value ([5]; single IV dose, 2 h)?
A: BLQ

Q: And the “plasma concentration of released INA (mean)” value ([5]; single IV dose, 2 h)?
A: BLQ

Q: What about the “plasma concentration of released AcINH (mean)” value ([5]; single IV dose, 4 h) of the same compound?
A: BLQ

Q: What about the “plasma concentration of released INA (mean)” value ([5]; single IV dose, 4 h) of the same compound?
A: BLQ

Q: And the “plasma concentration of released AcINH (mean)” value ([5]; single IV dose, 6 h)?
A: BLQ

Q: What about the “plasma concentration of released INA (mean)” value ([5]; single IV dose, 6 h) of the same compound?
A: BLQ

Q: And the “plasma concentration of released AcINH (mean)” value ([5]; single IV dose, 8 h)?
A: BLQ

Q: What about the “plasma concentration of released INA (mean)” value ([5]; single IV dose, 8 h) of the same compound?
A: BLQ

Q: And the “plasma concentration of released AcINH (mean)” value ([5]; single IV dose, 24 h)?
A: BLQ

Q: And the “plasma concentration of released INA (mean)” value ([5]; single IV dose, 24 h)?
A: BLQ

Q: What about the “eAUC20m–6h (AcHz)” value [6] of the same compound?
A: BLQ ^d

Q: And the “feed intake per cage” value ([6]; day 0, cage of n=3)?
A: 9 g

Q: And the “feed intake per cage” value ([6]; day 1, cage of n=3)?
A: 13 g

Q: What about the “feed intake per cage” value ([6]; day 2, cage of n=3) of the same compound?
A: 11 g

Q: What about the “feed intake per cage” value ([6]; day 3, cage of n=3) of the same compound?
A: 9 g

Q: What about the “feed intake per cage” value ([6]; day 4, cage of n=3) of the same compound?
A: 11.5 g

Q: What about the “feed intake per cage” value ([6]; day 5, cage of n=3) of the same compound?
A: 15.5 g

Q: What about the “feed intake per cage” value ([6]; day 6, cage of n=3) of the same compound?
A: 13.5 g

Q: What about the “feed intake per cage” value ([6]; day 7, cage of n=3) of the same compound?
A: 14 g

Q: And the “feed intake per cage” value ([6]; day 8, cage of n=3)?
A: 14 g

Q: And the “feed intake per cage” value ([6]; day 9, cage of n=3)?
A: 15 g

Q: What about the “feed intake per cage” value ([6]; day 10, cage of n=3) of the same compound?
A: 15 g

Q: And the “plasma concentration of released INA (mean)” value ([7]; single oral dose, 4 h)?
A: BLQ

Q: And the “plasma concentration of free INH (mean)” value ([7]; single oral dose, 6 h)?
A: BLQ

Q: And the “plasma concentration of released AcINH (mean)” value ([7]; single oral dose, 6 h)?
A: BLQ

Q: What about the “plasma concentration of released INA (mean)” value ([7]; single oral dose, 6 h) of the same compound?
A: BLQ

Q: And the “plasma concentration of free INH (mean)” value ([7]; single oral dose, 24 h)?
A: BLQ

Q: And the “plasma concentration of released AcINH (mean)” value ([7]; single oral dose, 24 h)?
A: BLQ

Q: What about the “plasma concentration of released INA (mean)” value ([7]; single oral dose, 24 h) of the same compound?
A: BLQ

Q: What about the “plasma level of AcHz formed in vivo” value ([7]; single oral dose) of the same compound?
A: BLQ

Q: And the “liver tissue levels of pyridoxal and pyridoxal-5′-phosphate” value [8]?
A: comparable

Q: And the logD [9]?
A: -0.8

Q: What about the “percentage of 1d/INH remaining after 2 h of incubation, human liver microsomes” value [10] of the same compound?
A: 66%

Q: What about the solubility at 24 h [11] of the same compound?
A: 610 mg/mL (≈ 4450 mM)

Q: What does the source list for `CC(C)OC(=O)NNC(=O)c1ccncc1.Cl` [prodrug 1d]?
A: concentration at 2 h ([1]; 1 mg/kg): 332 ng/mL; concentration at 6 h ([1]; 1 mg/kg): 146 ng/mL; concentration at 2 h ([1]; 3 mg/kg): 578 ng/mL; concentration at 6 h ([1]; 3 mg/kg): 151 ng/mL; concentration at 2 h ([1]; 10 mg/kg): 2030 ng/mL; concentration at 6 h ([1]; 10 mg/kg): 217 ng/mL; eAUC20m–6h (unchanged 1d) ([1]; single oral dose 1 mg/kg): 2916 ± 1005 ng·h/mL; eAUC20m–6h (unchanged 1d) ([1]; single oral dose 3 mg/kg): 5799 ± 858 ng·h/mL; eAUC20m–6h (unchanged 1d) ([1]; single oral dose 10 mg/kg): 20,138 ± 2821 ng·h/mL; chemical stability, pH (7.6): percentage of parent remaining [2]: 100.0%; chemical stability, DMSO: percentage of parent remaining [3]: 100.0%; percentage of 1d remaining after 2 h of incubation, mouse liver homogenate ([12]; 37 °C): 27%; eAUC5–120m of 1d, mouse liver homogenate ([12]; 2 h incubation): 261,525 ng·h/mL; plasma concentration of in vivo released Hz [4]: BLQ; plasma level of released Hz [4]: BLQ; % of prodrug remaining at 20 h, human plasma ([13]; 37 °C, ex vivo): 40.1%; eAUC20m–20h in human plasma, prodrug ([13]; 20 h ex vivo incubation): 1196 ± 308 ng·h/mL; AUC [5, 18]: 18 ± 1 ng·h/mL; Cmax [5, 18]: 90 ± 5 ng/mL; Tmax [5, 18]: 4.8 min; Vd [5, 18]: 21 L/kg; clearance [5, 18]: 1780 mL/min/kg; concentration at 0.33 h [5, 18]: 53.6 ng/mL; plasma concentration of released AcINH (mean) ([5]; single IV dose, 0.33 h): BLQ; plasma concentration of released INA (mean) ([5]; single IV dose, 0.33 h): BLQ; plasma concentration of released AcINH (mean) ([5]; single IV dose, 1 h): BLQ; plasma concentration of released INA (mean) ([5]; single IV dose, 1 h): BLQ; plasma concentration of unchanged 1d (mean) ([5]; single IV dose, 1 h): BLQ; plasma concentration of released AcINH (mean) ([5]; single IV dose, 2 h): BLQ; plasma concentration of released INA (mean) ([5]; single IV dose, 2 h): BLQ; plasma concentration of unchanged 1d (mean) ([5]; single IV dose, 2 h): BLQ; plasma concentration of released AcINH (mean) ([5]; single IV dose, 4 h): BLQ; plasma concentration of released INA (mean) ([5]; single IV dose, 4 h): BLQ; plasma concentration of unchanged 1d (mean) ([5]; single IV dose, 4 h): BLQ; plasma concentration of released AcINH (mean) ([5]; single IV dose, 6 h): BLQ; plasma concentration of released INA (mean) ([5]; single IV dose, 6 h): BLQ; plasma concentration of unchanged 1d (mean) ([5]; single IV dose, 6 h): BLQ; plasma concentration of released AcINH (mean) ([5]; single IV dose, 8 h): BLQ; plasma concentration of released INA (mean) ([5]; single IV dose, 8 h): BLQ; plasma concentration of unchanged 1d (mean) ([5]; single IV dose, 8 h): BLQ; plasma concentration of released AcINH (mean) ([5]; single IV dose, 24 h): BLQ; plasma concentration of released INA (mean) ([5]; single IV dose, 24 h): BLQ; plasma concentration of unchanged 1d (mean) ([5]; single IV dose, 24 h): BLQ; AUC5m–24h, released AcINH ([5]; single IV dose, INH 1 mg/kg or molar equivalent): no AcINH was observed and BLQ; eAUC20m–6h (AcHz) [6]: BLQ ^d; feed intake per cage ([6]; day 0, cage of n=3): 11 g; feed intake per cage ([6]; day 1, cage of n=3): 11.5 g; feed intake per cage ([6]; day 2, cage of n=3): 10.5 g; feed intake per cage ([6]; day 3, cage of n=3): 10 g; feed intake per cage ([6]; day 4, cage of n=3): 11 g; feed intake per cage ([6]; day 5, cage of n=3): 14.5 g; feed intake per cage ([6]; day 6, cage of n=3): 12 g; feed intake per cage ([6]; day 7, cage of n=3): 12 g; feed intake per cage ([6]; day 8, cage of n=3): 13.5 g; feed intake per cage ([6]; day 9, cage of n=3): 12.5 g; feed intake per cage ([6]; day 10, cage of n=3): 12.5 g; concentration at 0.33 h [7, 19]: 18700 ng/mL; concentration at 1 h [7, 19]: 10400 ng/mL; concentration at 2 h [7, 19]: 4620 ng/mL; concentration at 4 h [7, 19]: 942 ng/mL; concentration at 6 h [7, 19]: 347 ng/mL; concentration at 24 h [7, 19]: 152 ng/mL; plasma concentration of released AcINH (mean) ([7]; single oral dose, 0.33 h): BLQ; plasma concentration of released AcINH (mean) ([7]; single oral dose, 1 h): BLQ; plasma concentration of released AcINH (mean) ([7]; single oral dose, 2 h): BLQ; plasma concentration of released AcINH (mean) ([7]; single oral dose, 4 h): BLQ; plasma concentration of released INA (mean) ([7]; single oral dose, 4 h): BLQ; plasma concentration of free INH (mean) ([7]; single oral dose, 6 h): BLQ; plasma concentration of released AcINH (mean) ([7]; single oral dose, 6 h): BLQ; plasma concentration of released INA (mean) ([7]; single oral dose, 6 h): BLQ; plasma concentration of free INH (mean) ([7]; single oral dose, 24 h): BLQ; plasma concentration of released AcINH (mean) ([7]; single oral dose, 24 h): BLQ; plasma concentration of released INA (mean) ([7]; single oral dose, 24 h): BLQ; AUC5m–24h, released AcINH ([7]; single oral dose, INH 10 mg/kg or molar equivalent): BLQ; Vd, unchanged prodrug ([7]; single oral dose, molar equivalent of 10 mg/kg INH): 1.121 ± 0.345 L/kg; plasma level of AcHz formed in vivo ([7]; single oral dose): BLQ; eAUC0–20h in stomach homogenate, prodrug ([14]; 20 h): 433,081 ng·h/mL; percentage of prodrug remaining after 20 h of incubation, stomach homogenate ([14]; ex vivo): 3%; % of prodrug remaining at 20 h, mice plasma ([15]; 37 °C, ex vivo): 23.8%; eAUC20m–20h in mice plasma, prodrug ([15]; 20 h ex vivo incubation): 987 ± 154 ng·h/mL; liver tissue levels of pyridoxal and pyridoxal-5′-phosphate [8]: comparable; logD [9]: 0.2; percentage of 1d/INH remaining after 2 h of incubation, human liver microsomes [10]: 77%; eAUC0–120m of 1d, human liver microsomes ([10]; 2 h incubation): 80,176 ng·h/mL; solubility at 24 h ([11]; Tris HCl buffer): 18.6 mg/mL; plasma concentration of AcINH at 20 min [16]: BLQ; plasma eAUC20m–120m (AcINH) ([16]; n=3, 10 mg/kg): BLQ and below the limit of quantification and BLQ ^d; eAUC0–20h in intestinal homogenate, prodrug ([17]; 20 h): 728,889 ng·h/mL; percentage of prodrug remaining after 20 h of incubation, intestine homogenate ([17]; ex vivo): 87%
